Results published in ChEMBL document CHEMBL2176918, “Design and optimization of pyrazinecarboxamide-based inhibitors of diacylglycerol acyltransferase 1 (DGAT1) leading to a clinical candidate dimethylpyrazinecarboxamide phenylcyclohexylacetic acid (AZD7687)” (J Med Chem, 2012).

Assays:
[1] = Volume of distribution in Han-Wistar rat at 5.4 uM/kg, po or 2.7 uM/kg, iv; format: ADME, organism-based; conditions: in vivo
O-acyltransferase = target: T1, O-acyltransferase (Canis lupus familiaris, UniProt A0A8I3N393); assay: Inhibition of DGAT1 in dog liver microsomes; parameters: species or system Microsome
T1 sequence (A0A8I3N393 whole entry): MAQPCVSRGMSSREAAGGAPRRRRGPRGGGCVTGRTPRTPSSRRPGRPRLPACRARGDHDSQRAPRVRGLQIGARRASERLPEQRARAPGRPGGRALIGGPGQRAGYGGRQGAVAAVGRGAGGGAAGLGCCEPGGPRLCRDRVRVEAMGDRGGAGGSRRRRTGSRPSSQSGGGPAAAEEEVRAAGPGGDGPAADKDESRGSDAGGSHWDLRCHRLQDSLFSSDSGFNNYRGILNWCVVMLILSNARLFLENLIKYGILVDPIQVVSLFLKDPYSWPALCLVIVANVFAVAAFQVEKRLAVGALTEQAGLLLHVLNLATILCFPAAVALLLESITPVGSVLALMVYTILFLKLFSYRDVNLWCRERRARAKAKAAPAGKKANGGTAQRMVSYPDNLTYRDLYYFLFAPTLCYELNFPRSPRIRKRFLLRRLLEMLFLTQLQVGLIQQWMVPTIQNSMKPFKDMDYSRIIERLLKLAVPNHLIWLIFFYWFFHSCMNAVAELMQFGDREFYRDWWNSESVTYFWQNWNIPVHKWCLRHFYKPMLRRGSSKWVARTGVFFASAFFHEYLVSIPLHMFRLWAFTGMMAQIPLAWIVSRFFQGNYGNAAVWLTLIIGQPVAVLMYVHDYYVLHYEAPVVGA

[2] = target: T2, Sterol O-acyltransferase 2 (Homo sapiens, UniProt O75908); assay: Inhibition of human ACAT2 by liquid scintillography
T2 sequence (O75908 whole entry): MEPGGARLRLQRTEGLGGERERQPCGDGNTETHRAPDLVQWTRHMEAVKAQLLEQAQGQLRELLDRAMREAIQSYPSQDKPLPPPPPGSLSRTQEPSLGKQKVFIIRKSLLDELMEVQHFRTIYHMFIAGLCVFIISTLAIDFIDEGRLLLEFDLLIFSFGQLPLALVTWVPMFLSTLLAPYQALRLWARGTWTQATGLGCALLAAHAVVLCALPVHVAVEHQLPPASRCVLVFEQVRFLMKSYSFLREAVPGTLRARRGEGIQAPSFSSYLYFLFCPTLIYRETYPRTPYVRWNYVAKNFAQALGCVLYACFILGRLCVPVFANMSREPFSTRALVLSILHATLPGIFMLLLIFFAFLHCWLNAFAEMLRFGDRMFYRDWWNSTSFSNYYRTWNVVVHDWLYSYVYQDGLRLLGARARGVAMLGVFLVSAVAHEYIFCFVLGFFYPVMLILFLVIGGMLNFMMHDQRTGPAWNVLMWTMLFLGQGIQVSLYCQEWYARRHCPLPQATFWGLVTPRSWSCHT

[3] = Octanol/water partition coefficient, log D of the compound at pH 7.4; format: physicochemical
[4] = Fraction unbound in rat plasma; format: ADME, cell-free

Cc1nc(C)c(-c2ccc(C3CCC(CC(=O)O)CC3)cc2)nc1C(N)=O (stereo not given) [AZD-7687]
Vd [1]: 0.35 L/kg
IC50 (O-acyltransferase): 0.06 µM
IC50 [2]: > 10 µM
logD [3]: 0.9
fraction unbound [4]: 0.03
